Assay results as given in patent US20150190407A1, “METHODS FOR TREATMENT OF POSTOPERATIVE INFLAMMATION WITH REDUCED INTRAOCULAR PRESSURE” (Insite Vision Incorporated, priority 2014, published 2015).
Read-outs that look alike come from different tables or passages of the source.

How the values were obtained:
[1] = cited from earlier work
[2] = Release from the vehicle in the rabbit eye, measured in aqueous humor; assay type: in vivo; settings: in the ophthalmically acceptable vehicle
Experimental: The viscous gels that result upon administration of the aqueous suspensions of the present disclosure to the eye have residence times in the eye ranging from about 2 to about 12 hours, e.g., from about 3 to about 6 hours. The active ingredients contained in these ophthalmically acceptable vehicles are released from the gels at rates that depend on such factors as the active ingredient itself and its physical form, the extent of drug loading and the pH of the system, as well as on any drug delivery adjuvants, such as ion exchange resins compatible with the ocular surface, which can also be present.

[3] = after 8 days of treatment for inflammation following ocular surgery; cited from earlier work

C[C@@H]1C[C@H]2[C@@H]3CCC4=CC(=O)C=C[C@]4(C)[C@@]3(F)[C@@H](O)C[C@]2(C)[C@@]1(O)C(=O)CO [dexamethasone]
rise in IOP (published data) ([1]; administered without the benefit of a sustained release vehicle): 3-4 mmHg

CC(=O)[C@@]1(O)CC[C@H]2[C@@H]3C[C@H](C)C4=CC(=O)C=C[C@]4(C)[C@@]3(F)[C@@H](O)C[C@@]21C [fluorometholone]
release rates in the rabbit eye, as measured by fluorometholone contained in the aqueous humor [2]: in excess of four hours

C[C@@H]1C[C@H]2[C@@H]3CCC4=CC(=O)C=C[C@]4(C)[C@@]3(F)[C@@H](O)C[C@]2(C)[C@@]1(O)C(=O)COP(=O)(O)O [dexamethasone phosphate]
increase of intraocular pressure ([1]; after one week): 1-2 mmHg
increase of intraocular pressure ([1]; after six weeks): 5-6 mmHg
increase of intraocular pressure ([1]; after two weeks): 3-4 mmHg
median intraocular pressure vs placebo (saline 0.9%) [3]: significantly higher
